The results in this text go back to patent US9549965B2, “Pharmaceutical composition for treating a microbial infection” (HELPERBY THERAPEUTICS LIMITED, priority 2010, dated 2017).

Usually MIC stands for the lowest concentration found to suppress growth.

One experiment deals with persistent E. coli. Description: Bactericidal activity against persistent E. coli selected by gentamicin. Type of experiment: cell-based, Escherichia coli. Particulars: for log reduction at 6.25 µg/mL / log reduction at 12.5 µg/mL / log reduction at 25 µg/mL: Escherichia coli, read-out: Log Kill. Here is the method: (§1) Escherichia coli K12; Gram negative; Reference strain.
An antibiotic (gentamicin) was added to 5-6 day stationary-phase cultures to the final concentration of 50 to 100 μg/ml for 24 hours. After 24 hours of antibiotic treatment, the cells are washed 3 times with phosphate buffered saline (PBS), and then resuspended in PBS. The surviving bacterial cells are used as persisters. Viability is estimated by CFU counts. The persisters were then used in measurements of bactericidal activity for test compounds.
Different concentrations of each test compound were incubated with the (persister) cell suspension in 96 well plates for various periods of time (24 and 48 hours). Bactericidal activity was then determined by taking CFU counts of the resulting cultures, as described above.

The test system of another experiment is log phase E. coli. Description: MIC against log phase E. coli. Type of experiment: cell-based, Escherichia coli. Here is the method:
as §1
The above-described overnight cultures were diluted (1000×) with iso-sensitest broth. The cultures were then incubated at 37° C. with shaking for 1-2 hours to reach log CFU 6, which served as log phase cultures.
The bactericidal activity of the drugs against log phase cultures were determined by minimal inhibitory concentration (MIC) of the drugs, which is defined as the lowest concentration which inhibits visible growth. Different concentrations of each test compound were incubated with the log-phase cultures in 96 well plates for 24 hours. Bactericidal activity was then examined by taking a spectrophotometer reading (using a plate reader) at 405 nm.

In experiment [1] the test system is stationary phase S. aureus. Description: Bactericidal activity against stationary phase S. aureus (CFU counts). Type of experiment: cell-based, Staphylococcus aureus. Particulars: for log reduction at 6.25 µg/mL / log reduction at 12.5 µg/mL / log reduction at 25 µg/mL: Staphylococcus aureus, read-out: Log Kill. How it is done: Staphylococcus aureus (Oxford strain); Gram positive; Reference strain.
(§2) Bacteria were grown in 10 ml of nutrient broth (No. 2 (Oxoid)) overnight at 37° C., with continuous shaking at 120 rpm. The overnight cultures were diluted (1000×) in 100 ml of growth medium and then incubated without shaking for 10 days. Viability of the bacteria was estimated by colony forming unit (CFU) counts at 2 hour intervals at the first 24 hours and at 12-24 hours afterwards. From serial 10-fold dilutions of the experimental cultures, 100 μl samples were added to triplicate plates of nutrient agar plates (Oxoid) and blood agar plates (Oxoid). Colony forming units (CFU) were counted after incubation of the plates at 37° C. for 24 hours.
(§3) Cultures incubated for more than 24 hours are in the stationary phase. For drug screening, 5-6 day old stationary phase cultures were used.
(§4) Different concentrations of each test compound were incubated with stationary phase cultures (5-6 day cultures) in 96 well plates for 24 or 48 hours. Bactericidal activity was then determined by taking CFU counts of the resulting cultures, as described above.

The next experiment deals with stationary phase E. coli. Description: Bactericidal activity against stationary phase E. coli (CFU counts). Type of experiment: cell-based, Escherichia coli. Particulars: for log reduction at 6.25 µg/mL / log reduction at 12.5 µg/mL / log reduction at 25 µg/mL: Escherichia coli, read-out: Log kill. Here is the method: as §1, §2, §3, §4
Experiment [2] concerns NDM-1 Klebsiella pneumoniae. Description: Chequerboard analysis with colistin against NDM-1 Klebsiella pneumoniae. The experiment is classed as cell-based.
Setting [3] is: Escherichia coli, read-out: MIC.

In brackets after ≈: the same amount, converted by molar mass. Counter-ions that a name gives are not always drawn. Like-named read-outs stand apart in the source and are kept apart here. Bounds are passed on as bounds.

Take `N.N.O=C([O-])C1(C(=O)[O-])CCC1.[Pt+2]` [Carboplatin]: the “Log Kill” value in the experiment on persistent E. coli (6.25 μg/ml) is reported as 1.55; with persistent E. coli (12.5 μg/ml) it was 2.55; in the experiment with persistent E. coli (25 μg/ml), 6.21; in experiment [1] (6.25 μg/ml), 0.92; in experiment [1] (12.5 μg/ml) it was 6.03; in experiment [1] (25 μg/ml), 6.03. Further, the Log Kill in the experiment on stationary phase E. coli (6.25 μg/ml), with stationary phase E. coli (12.50 μg/ml) and with stationary phase E. coli (25.00 μg/ml) was 6.14 throughout. In the experiment on log phase E. coli, the MIC entry is given as “— (— signifies MIC higher than 50 μg/ml)”.
With `CN(C)CC/C=C1/c2ccccc2Sc2ccc(Cl)cc21` [Chlorprothixene hydrochloride], the log reduction at 6.25 µg/mL in the experiment on persistent E. coli (6.25 μg/ml) came to 0.02; in experiment [1] (6.25 μg/ml), 1.83. The results for the log reduction at 12.5 µg/mL (in the experiment with persistent E. coli (12.5 μg/ml); in experiment [1] (12.5 μg/ml)) were 0.03 and 6.15, respectively. For the same compound, the log reduction at 25 µg/mL came out at 6.21 in the experiment with persistent E. coli (25 μg/ml) and 6.15 in experiment [1] (25 μg/ml). Further, the MIC in the experiment with log phase E. coli (setting [3]) was 20 µg/mL. Also, the spectrophotometer reading in experiment [2] (chlorprothixene hydrochloride 0.25 mg/L alone) was found to be 1.14; in experiment [2] (chlorprothixene hydrochloride 0.5 mg/L alone), 1.15; in experiment [2] (chlorprothixene hydrochloride 1 mg/L alone), 1.13; in experiment [2] (chlorprothixene hydrochloride 2 mg/L alone), 1.12; in experiment [2] (chlorprothixene hydrochloride 4 mg/L alone), 1.12; in experiment [2] (chlorprothixene hydrochloride 8 mg/L alone), 1.13. Further, the spectrophotometer reading in experiment [2] (chlorprothixene hydrochloride 16 mg/L alone) was 1.10; in experiment [2] (chlorprothixene hydrochloride 32 mg/L alone) it was 1.05; in experiment [2] (chlorprothixene hydrochloride 64 mg/L alone), 0.70; in experiment [2] (chlorprothixene hydrochloride 128 mg/L alone) it was 0.62; in experiment [2] (chlorprothixene hydrochloride 256 mg/L alone) it was 0.40.
Regarding `N.N.[Cl][Pt][Cl]` [Cisplatin], the “Log Kill” value was 6.21 in the experiment on persistent E. coli (6.25 μg/ml); 6.21 in the experiment with persistent E. coli (12.5 μg/ml); 6.21 in the experiment with persistent E. coli (25 μg/ml); 6.03 in experiment [1] (6.25 μg/ml); 6.03 in experiment [1] (12.5 μg/ml); 6.03 in experiment [1] (25 μg/ml). Besides, the Log Kill in the experiment on stationary phase E. coli (6.25 μg/ml), in the experiment with stationary phase E. coli (12.50 μg/ml) and in the experiment with stationary phase E. coli (25.00 μg/ml) was 6.14 in each case. Further, in the experiment on log phase E. coli, the MIC result was “— (— signifies MIC higher than 50 μg/ml)”.
For `CO[C@@]12[C@H](COC(N)=O)C3=C(C(=O)C(C)=C(N)C3=O)N1C[C@@H]1N[C@@H]12` [Mitomycin C], the “Log Kill” value in the experiment with persistent E. coli (6.25 μg/ml) stood at 6.21; with persistent E. coli (12.5 μg/ml), 6.21; in the experiment on persistent E. coli (25 μg/ml), 6.21; in experiment [1] (6.25 μg/ml), 6.15; in experiment [1] (12.5 μg/ml) it was 6.15; in experiment [1] (25 μg/ml) it was 6.15. Also, the Log Kill with stationary phase E. coli (6.25 μg/ml) came out at 2.27; in the experiment on stationary phase E. coli (12.50 μg/ml), 6.14; in the experiment on stationary phase E. coli (25.00 μg/ml) it was 6.14. In addition, the minimal inhibitory concentration (MIC) with log phase E. coli came out at 0.3 µg/mL (≈ 0.897 µM).
Consider `Cl.Cl.O=C1c2c(O)ccc(O)c2C(=O)c2c(NCCNCCO)ccc(NCCNCCO)c21` [Mitoxanthrone hydrochloride], for which the “Log Kill” value in the experiment on persistent E. coli (6.25 μg/ml) was determined as 6.21; in the experiment with persistent E. coli (12.5 μg/ml), 6.21; in the experiment on persistent E. coli (25 μg/ml), 6.21; in the experiment with stationary phase E. coli (6.25 μg/ml) it was 6.14; with stationary phase E. coli (12.50 μg/ml), 6.14; in the experiment with stationary phase E. coli (25.00 μg/ml) it was 6.14. The MIC result with log phase E. coli is recorded as “— (— signifies MIC higher than 50 μg/ml)”.
For `N=C1C=CC(=C(c2ccc(N)cc2)c2ccc(N)cc2)C=C1` [Pararosaniline pamoate], the log reduction at 6.25 µg/mL with persistent E. coli (6.25 μg/ml) is -0.01; in experiment [1] (6.25 μg/ml), 6.15; with stationary phase E. coli (6.25 μg/ml) it was 1.9. The log reduction at 12.5 µg/mL stood at 0.01 in the experiment on persistent E. coli (12.5 μg/ml), 6.15 in experiment [1] (12.5 μg/ml) and 6.14 in the experiment on stationary phase E. coli (12.50 μg/ml). Moreover, the log reduction at 25 µg/mL with persistent E. coli (25 μg/ml) came out at 6.21; in experiment [1] (25 μg/ml), 6.15; in the experiment with stationary phase E. coli (25.00 μg/ml), 6.14. Also, the MIC with log phase E. coli (setting [3]) was 10 µg/mL.
For the compound `C1CCC(C(CC2CCCCN2)C2CCCCC2)CC1` (stereo not shown) [Perhexiline maleate], the log reduction at 6.25 µg/mL is -0.01 in the experiment on persistent E. coli (6.25 μg/ml) and 6.15 in experiment [1] (6.25 μg/ml). The log reduction at 12.5 µg/mL in the experiment with persistent E. coli (12.5 μg/ml) turned out to be 0.04; in experiment [1] (12.5 μg/ml), 6.15. For the same compound, the log reduction at 25 µg/mL was found to be 6.21 with persistent E. coli (25 μg/ml) and 6.15 in experiment [1] (25 μg/ml). In the experiment with log phase E. coli (setting [3]), the MIC was found to be 10 µg/mL.
As for `C[n+]1cc2c3c(ccc2c2ccc4cc5c(cc4c21)OCO5)OCO3` [Sanguinarine sulfate], the log reduction at 6.25 µg/mL is 0.04 in the experiment with persistent E. coli (6.25 μg/ml), 6.15 in experiment [1] (6.25 μg/ml) and -0.1 in the experiment with stationary phase E. coli (6.25 μg/ml). Moreover, the log reduction at 12.5 µg/mL came to 1.47 with persistent E. coli (12.5 μg/ml), 6.15 in experiment [1] (12.5 μg/ml) and 2.4 in the experiment on stationary phase E. coli (12.50 μg/ml). In addition, the log reduction at 25 µg/mL in the experiment on persistent E. coli (25 μg/ml) is 6.21; in experiment [1] (25 μg/ml), 6.15; in the experiment with stationary phase E. coli (25.00 μg/ml) it was 6.14. The MIC with log phase E. coli (setting [3]) was above 50 µg/mL.
For the compound `CSc1ccc2c(c1)N(CCC1CCCCN1C)c1ccccc1S2` (stereo not shown) [Thioridazine hydrochloride], the values for the log reduction at 6.25 µg/mL (in the experiment on persistent E. coli (6.25 μg/ml); in experiment [1] (6.25 μg/ml); with stationary phase E. coli (6.25 μg/ml)) were 0.04, 6.03 and 6.14, respectively. Also, the results for the log reduction at 12.5 µg/mL (in the experiment with persistent E. coli (12.5 μg/ml); in experiment [1] (12.5 μg/ml); with stationary phase E. coli (12.50 μg/ml)) were 0.03, 6.03 and 6.14, respectively. The log reduction at 25 µg/mL worked out at 6.21 with persistent E. coli (25 μg/ml), 6.03 in experiment [1] (25 μg/ml) and 6.14 in the experiment with stationary phase E. coli (25.00 μg/ml). Besides, the minimum inhibitory concentration (MIC) with log phase E. coli (setting [3]) worked out at 10 µg/mL. Besides, the spectrophotometer reading is given as 0.98 in experiment [2] (thioridazine hydrochloride 0.25 mg/L alone); 0.97 in experiment [2] (thioridazine hydrochloride 0.5 mg/L alone); 0.97 in experiment [2] (thioridazine hydrochloride 1 mg/L alone); 0.96 in experiment [2] (thioridazine hydrochloride 2 mg/L alone); 0.96 in experiment [2] (thioridazine hydrochloride 4 mg/L alone); 0.96 in experiment [2] (thioridazine hydrochloride 8 mg/L alone). Further, the spectrophotometer reading in experiment [2] (thioridazine hydrochloride 16 mg/L alone) came out at 0.96; in experiment [2] (thioridazine hydrochloride 32 mg/L alone) it was 0.93; in experiment [2] (thioridazine hydrochloride 64 mg/L alone), 0.73; in experiment [2] (thioridazine hydrochloride 128 mg/L alone) it was 0.76; in experiment [2] (thioridazine hydrochloride 256 mg/L alone), 1.41.
On to Bithionate sodium, for which the “Log Kill” value is 0.01 in the experiment on persistent E. coli (6.25 μg/ml); 0.03 in the experiment on persistent E. coli (12.5 μg/ml); 6.21 with persistent E. coli (25 μg/ml); 0.01 in experiment [1] (6.25 μg/ml); 6.15 in experiment [1] (12.5 μg/ml); 6.15 in experiment [1] (25 μg/ml). This compound also returned an MIC against log phase E. coli of 5 µg/mL.
Consider Bleomycin, for which the “Log Kill” value in the experiment on persistent E. coli (6.25 μg/ml) was 1.55; in the experiment with persistent E. coli (12.5 μg/ml), 6.21; in the experiment with persistent E. coli (25 μg/ml), 6.21; in the experiment with stationary phase E. coli (6.25 μg/ml), 2.22; in the experiment with stationary phase E. coli (12.50 μg/ml) it was 6.14; in the experiment on stationary phase E. coli (25.00 μg/ml), 6.14. For the same compound, in the experiment with log phase E. coli, the MIC was 0.15 µg/mL.
With Vitamin B12, the “Log Kill” value in the experiment on persistent E. coli (6.25 μg/ml) is on record as 0.03; in the experiment on persistent E. coli (12.5 μg/ml) it was 6.21; with persistent E. coli (25 μg/ml), 6.21. Besides, the MIC entry against log phase E. coli is on record as “— (— signifies MIC higher than 50 μg/ml)”.
